Legend:
[1] = biological target: T1, Angiotensin II receptor (AT-1) type-1 (Rattus norvegicus, UniProt P29089+P25095); assay: In vitro binding affinity to angiotensin II receptor, type 1 in rat adrenal cortex preparation; type: tissue-based
T1 sequence (P29089 whole entry): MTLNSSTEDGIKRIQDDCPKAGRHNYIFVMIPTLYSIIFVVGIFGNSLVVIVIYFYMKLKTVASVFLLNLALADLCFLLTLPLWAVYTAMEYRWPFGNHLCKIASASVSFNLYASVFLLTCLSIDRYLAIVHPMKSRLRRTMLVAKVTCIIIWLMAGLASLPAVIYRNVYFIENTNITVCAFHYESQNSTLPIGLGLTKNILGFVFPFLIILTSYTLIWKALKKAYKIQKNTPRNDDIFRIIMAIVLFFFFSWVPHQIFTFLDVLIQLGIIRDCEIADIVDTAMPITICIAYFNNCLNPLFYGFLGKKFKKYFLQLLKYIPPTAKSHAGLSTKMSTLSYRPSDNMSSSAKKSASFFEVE
T1 sequence (P25095 whole entry): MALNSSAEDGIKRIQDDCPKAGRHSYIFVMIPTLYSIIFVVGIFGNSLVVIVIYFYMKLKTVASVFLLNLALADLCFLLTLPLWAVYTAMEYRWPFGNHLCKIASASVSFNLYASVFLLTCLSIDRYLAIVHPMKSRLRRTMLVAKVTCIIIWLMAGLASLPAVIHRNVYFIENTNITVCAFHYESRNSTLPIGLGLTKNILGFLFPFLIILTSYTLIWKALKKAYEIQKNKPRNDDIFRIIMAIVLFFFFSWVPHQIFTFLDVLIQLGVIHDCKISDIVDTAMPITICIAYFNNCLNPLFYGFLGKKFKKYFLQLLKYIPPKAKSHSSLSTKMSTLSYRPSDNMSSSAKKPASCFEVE

[2] = species: Oryctolagus cuniculus; assay: In vitro functional antagonism in isolated rabbit aortic rings precontracted by AII; details: Aorta
[3] = test system: Rattus norvegicus; assay: In vivo percent inhibition of AII induced increase in diastolic blood pressure in pithed rats at a dose of 3 mg/kg, i.d.; type: functional; details: Artery, route intraduodenal

| Compound | IC50 [1] [nM] | IC50 [2] [nM] | inhibition in vivo at 3 mg/kg [3] [%] |
| --- | --- | --- | --- |
| CCCCc1ccc(CN(Cc2ccccc2)S(=O)(=O)c2ccccc2)c(=O)n1Cc1ccc(-c2ccccc2-c2nn[nH]n2)cc1 | 12 | 20 | 75.7 |
| CCCCc1ccc(CN(C)S(=O)(=O)c2ccccc2)c(=O)n1Cc1ccc(-c2ccccc2-c2nn[nH]n2)cc1 | 4.2 | 2 | 68.7 |
| CCCCc1ccc(CN(C)S(=O)(=O)c2ccc(C)cc2)c(=O)n1Cc1ccc(-c2ccccc2-c2nn[nH]n2)cc1 | 4.2 | 8 |  |
| CCCCc1ccc(CN(Cc2ccccc2)C(C)=O)c(=O)n1Cc1ccc(-c2ccccc2-c2nn[nH]n2)cc1 | 2.8 | 1 | 76.3 |
| CCCCc1ccc(CNC(=O)Nc2ccccc2)c(=O)n1Cc1ccc(-c2ccccc2-c2nn[nH]n2)cc1 | 18 | 30 | 0 |
| CCCCc1nc(Cl)c(CO)n1Cc1ccc(-c2ccccc2-c2nn[nH]n2)cc1 |  | 3 | 73.6 |
| CCCCc1ccc(CNS(=O)(=O)c2ccccc2)c(=O)n1Cc1ccc(-c2ccccc2-c2nn[nH]n2)cc1 | 4.1 | 7 | 25.2 |
| CCCCc1cccc(=O)n1Cc1ccc(-c2ccccc2-c2nn[nH]n2)cc1 | 18 | 4 |  |
| CCCCc1ccc(CN(C(C)C)S(C)(=O)=O)c(=O)n1Cc1ccc(-c2ccccc2-c2nn[nH]n2)cc1 | 1.9 | 0.9 | 82.7 |
| CCCCc1ccc(CN(Cc2ccccc2)C(=O)OC(C)(C)C)c(=O)n1Cc1ccc(-c2ccccc2-c2nn[nH]n2)cc1 | 20 |  |  |
| CCCCc1ccc(C#N)c(=O)n1Cc1ccc(-c2ccccc2-c2nn[nH]n2)cc1 | 18 |  |  |
| CCCCc1ccc(CNC(=O)NC2CCCCC2)c(=O)n1Cc1ccc(-c2ccccc2-c2nn[nH]n2)cc1 | 21 | 90 | 0 |
| CCCCc1ccc(CNS(=O)(=O)c2ccc(C)cc2)c(=O)n1Cc1ccc(-c2ccccc2-c2nn[nH]n2)cc1 | 3.3 | 9 |  |
| CCCCc1ccc(CN(Cc2ccccc2)S(C)(=O)=O)c(=O)n1Cc1ccc(-c2ccccc2-c2nn[nH]n2)cc1 | 3.8 | 2 | 41.2 |
| CCCCc1ccc(CN(Cc2ccccc2)S(=O)(=O)c2ccc(C)cc2)c(=O)n1Cc1ccc(-c2ccccc2-c2nn[nH]n2)cc1 | 16.5 | 60 | 36.6 |
| CCCCc1ccc(CNCc2ccccc2)c(=O)n1Cc1ccc(-c2ccccc2-c2nn[nH]n2)cc1 | 1.5 | 1 | 12.4 |
| CCCCc1ccc(CNS(=O)(=O)C(F)(F)F)c(=O)n1Cc1ccc(-c2ccccc2-c2nn[nH]n2)cc1 | 22 |  |  |
| CCCCc1ccc(CN(CC)S(C)(=O)=O)c(=O)n1Cc1ccc(-c2ccccc2-c2nn[nH]n2)cc1 | 3.5 | 2 |  |
| CCCCc1ccc(CNC(=O)Cc2ccccc2)c(=O)n1Cc1ccc(-c2ccccc2-c2nn[nH]n2)cc1 | 4.1 |  |  |
| CCCCc1ccc(C)c(=O)n1Cc1ccc(-c2ccccc2-c2nn[nH]n2)cc1 | 6.1 | 7 |  |

More lines, main results first:

| IC50 [1] [nM] | IC50 [2] [nM] | Compound | inhibition in vivo at 3 mg/kg [3] [%] |
| --- | --- | --- | --- |
| 2.2 | 2 | CCCCc1ccc(CNS(C)(=O)=O)c(=O)n1Cc1ccc(-c2ccccc2-c2nn[nH]n2)cc1 | 54.8 |
| 9 | 10 | CCCCNC(=O)NCc1ccc(CCCC)n(Cc2ccc(-c3ccccc3-c3nn[nH]n3)cc2)c1=O | 10.3 |
| 6 | 10 | CCCCc1ccc(CNC(=O)OC(C)(C)C)c(=O)n1Cc1ccc(-c2ccccc2-c2nn[nH]n2)cc1 | 68.9 |
| 5.7 |  | CCCCc1ccc(CNC(=O)CCC)c(=O)n1Cc1ccc(-c2ccccc2-c2nn[nH]n2)cc1 |  |
| 19 | 20 | CCCCc1ccc(CN)c(=O)n1Cc1ccc(-c2ccccc2-c2nn[nH]n2)cc1 | 2.8 |
| 2.9 | 2 | CCCCc1ccc(CNC(=O)N(C)C)c(=O)n1Cc1ccc(-c2ccccc2-c2nn[nH]n2)cc1 | 28 |
| 3.8 | 3 | CCCCc1ccc(CNC(C)=O)c(=O)n1Cc1ccc(-c2ccccc2-c2nn[nH]n2)cc1 | 8.6 |
| 1.2 | 0.2 | CCCCc1ccc(CN(C)S(C)(=O)=O)c(=O)n1Cc1ccc(-c2ccccc2-c2nn[nH]n2)cc1 | 83.4 |
| 6.5 |  | CCCCc1ccc(CNC(=O)N(CC)CC)c(=O)n1Cc1ccc(-c2ccccc2-c2nn[nH]n2)cc1 |  |
| 13 |  | CCCCc1ccc(CN(C)C(=O)N(C)C)c(=O)n1Cc1ccc(-c2ccccc2-c2nn[nH]n2)cc1 |  |
